Experimental data taken from patent US9932637B2, “Genetic polymorphisms associated with cardiovascular disorders and drug response, methods of detection and uses thereof” (CELERA CORPORATION, priority 2003, dated 2018).

Test system: patients with prior myocardial infarction (CARE study)
Assay: CARE: association of SNPs with pravastatin treatment in cardiovascular events prevention (logistic regression, odds ratio pravastatin vs placebo by genotype; Table 8)
Type: in vivo, human
Conditions: for Any Report of Stroke Prior to or During CARE, n/total (%) / Cardiovascular Mortality, n/total (%) / Fatal Atherosclerotic Cardiovascular Disease, n/total (%) / Fatal Coronary Heart Disease, n/total (%) / Fatal/Non-fatal Atherosclerotic CV Disease, n/total (%) / Total Coronary Heart Disease Events, n/total (%) / Total Mortality, n/total (%) / Hosp. for Cardiovascular Disease, n/total (%) / Total Cardiovascular Disease Events, n/total (%): Prava arm; for Odds ratio pravastatin vs placebo: TGFB1 hCV8708473, All Patients
Excerpt: In order to identify genetic markers associated with acute coronary events (e.g. MI, stroke, unstable angina, congestive heart failure, etc.) or response to statin treatment for the prevention of coronary events, samples from the Cholesterol and Recurrent Events (CARE) study (a randomized multicentral double-blinded trial on secondary prevention of acute coronary events with pravastatin) (Sacks et al., 1991, Am. J. Cardiol. 68: 1436-1446) were genotyped. A well-documented myocardial infarction (MI) was one of the enrollment criteria for entry into the CARE study. Patients were enrolled in the CARE trial from 80 participating study centers. […] Patients were randomized to receive either 40 mg of pravastatin once daily or a matching placebo. The primary endpoint of the trial was death from coronary heart disease and the median duration of follow-up was 5.0 years (range, 4.0 to 6.2 years). […] Secondary endpoints of other related cardiovascular or metabolic disease events, and changes in clinical variables were also recorded in pravastatin-treated and placebo groups. All individuals included in the study had signed a written informed consent form and the study protocol was approved by the respective Institutional Review Boards (IRBs).
For genotyping SNPs in CARE patient samples, DNA was extracted from blood samples using conventional DNA extraction methods such as the QIA-amp kit from Qiagen. Genotypes were obtained on an ABI PRISM® 7900HT Sequence Detection PCR system (Applied Biosystems, Foster City, Calif.) by kinetic allele-specific PCR, similar to the method described by Germer et al. (Germer S., Holland M. J., Higuchi R. 2000, Genome Res. 10: 258-266).
Statistical analysis for association of SNPs with pravastatin treatment in cardiovascular events prevention (Table 8) was carried out using an overall logistic regression model that included an intercept, a parameter for the effect of a genotype containing two rare alleles versus a genotype containing no rare alleles, a parameter for the effect of a genotype containing one rare allele versus a genotype containing no rare alleles, a parameter for the effect of use of pravastatin versus the use of placebo, and parameters for the interaction effects between SNP genotypes and pravastatin use. The test of the overall model is a chi-square test with two degrees of freedom for analyses containing all three genotypes, and one degree of freedom for analyses containing two genotypes.
Effect sizes were estimated through odds ratios (pravastatin group versus placebo) for carriers of each genotype (groups of 0, 1, and 2 minor allele carriers). The effect was considered to be significant if p-value for testing whether any of the interactions between SNP genotypes and pravastatin use were <0.05. […] Odds ratios less than one indicate that the specific SNP allele has a protective effect and odds ratios greater than one indicate that the specific SNP allele has an adverse effect.

[1] = TGFB1 hCV8708473, All Patients, 1 Rare Allele
[2] = TGFB1 hCV8708473, All Patients, 2 Rare Alleles
[3] = TGFB1 hCV22272997, All Patients, 0 Rare Alleles
[4] = TGFB1 hCV22272997, All Patients, 1 Rare Allele
[5] = TGFB1 hCV22272997, All Patients, 2 Rare Alleles
[6] = TLR5 hCV15871020, All Patients, 0 Rare Alleles
[7] = TLR5 hCV15871020, All Patients, 1 Rare Allele

**Q.** Which “Any Report of Stroke Prior to or During CARE, n/total (%)” value [1] does the source give for `CC[C@H](C)C(=O)O[C@H]1C[C@H](O)C=C2C=C[C@H](C)[C@H](CC[C@@H](O)C[C@@H](O)CC(=O)O)[C@H]21` [pravastatin] here?
**A.** Its value is “(3.8%)”.

**Q.** What about the “Cardiovascular Mortality, n/total (%)” value [1] of the same molecule?
**A.** Its value is “(1.7%)”.

**Q.** And the “Fatal Atherosclerotic Cardiovascular Disease, n/total (%)” value [1]?
**A.** The value was “(1.7%)”.

**Q.** What about the “Fatal Coronary Heart Disease, n/total (%)” value [1] of the same molecule?
**A.** The value was “(1.2%)”.

**Q.** What about the “Fatal/Non-fatal Atherosclerotic CV Disease, n/total (%)” value [1] of the same molecule?
**A.** Its value is “(27.9%)”.

**Q.** And the “Total Coronary Heart Disease Events, n/total (%)” value [1]?
**A.** The value was “(23.9%)”.

**Q.** What about the “Total Mortality, n/total (%)” value [1] of the same molecule?
**A.** Its value is “(3.8%)”.

**Q.** What about the “Any Report of Stroke Prior to or During CARE, n/total (%)” value [2] of the same molecule?
**A.** Its value is “(3.7%)”.

**Q.** And the “Cardiovascular Mortality, n/total (%)” value [2]?
**A.** Its value is “(3.1%)”.

**Q.** And the “Fatal Atherosclerotic Cardiovascular Disease, n/total (%)” value [2]?
**A.** Its value is “(3.1%)”.

**Q.** What about the “Fatal Coronary Heart Disease, n/total (%)” value [2] of the same molecule?
**A.** The value was “(2.5%)”.

**Q.** What about the “Fatal/Non-fatal Atherosclerotic CV Disease, n/total (%)” value [2] of the same molecule?
**A.** Its value is “(38.3%)”.

**Q.** And the “Total Coronary Heart Disease Events, n/total (%)” value [2]?
**A.** The value was “(37.0%)”.

**Q.** What about the “Total Mortality, n/total (%)” value [2] of the same molecule?
**A.** Its value is “(4.9%)”.

**Q.** And the “Odds ratio pravastatin vs placebo” value (Any Report of Stroke Prior to or During CARE, 0 rare alleles)?
**A.** Its value is 1.35.

**Q.** What about the “Odds ratio pravastatin vs placebo” value (Any Report of Stroke Prior to or During CARE, 1 rare allele) of the same molecule?
**A.** The value was 0.68.

**Q.** And the “Odds ratio pravastatin vs placebo” value (Any Report of Stroke Prior to or During CARE, 2 rare alleles)?
**A.** Its value is 0.38.

**Q.** What about the “Odds ratio pravastatin vs placebo” value (Cardiovascular Mortality, 0 rare alleles) of the same molecule?
**A.** The value was 1.95.

**Q.** And the “Odds ratio pravastatin vs placebo” value (Cardiovascular Mortality, 1 rare allele)?
**A.** Its value is 0.30.

**Q.** What about the “Odds ratio pravastatin vs placebo” value (Cardiovascular Mortality, 2 rare alleles) of the same molecule?
**A.** The value was 0.48.

**Q.** What about the “Odds ratio pravastatin vs placebo” value (Fatal Atherosclerotic Cardiovascular Disease, 0 rare alleles) of the same molecule?
**A.** Its value is 1.90.

**Q.** And the “Odds ratio pravastatin vs placebo” value (Fatal Atherosclerotic Cardiovascular Disease, 1 rare allele)?
**A.** The value was 0.30.

**Q.** What about the “Odds ratio pravastatin vs placebo” value (Fatal Atherosclerotic Cardiovascular Disease, 2 rare alleles) of the same molecule?
**A.** Its value is 0.48.

**Q.** What about the “Odds ratio pravastatin vs placebo” value (Fatal Coronary Heart Disease, 0 rare alleles) of the same molecule?
**A.** The value was 1.79.

**Q.** And the “Odds ratio pravastatin vs placebo” value (Fatal Coronary Heart Disease, 1 rare allele)?
**A.** The value was 0.26.

**Q.** What about the “Odds ratio pravastatin vs placebo” value (Fatal Coronary Heart Disease, 2 rare alleles) of the same molecule?
**A.** Its value is 0.49.

**Q.** What about the “Odds ratio pravastatin vs placebo” value (Fatal/Non-fatal Atherosclerotic CV Disease, 0 rare alleles) of the same molecule?
**A.** The value was 0.94.

**Q.** What about the “Odds ratio pravastatin vs placebo” value (Fatal/Non-fatal Atherosclerotic CV Disease, 1 rare allele) of the same molecule?
**A.** The value was 0.59.

**Q.** What about the “Odds ratio pravastatin vs placebo” value (Fatal/Non-fatal Atherosclerotic CV Disease, 2 rare alleles) of the same molecule?
**A.** Its value is 0.81.

**Q.** And the “Odds ratio pravastatin vs placebo” value (Total Coronary Heart Disease Events, 0 rare alleles)?
**A.** The value was 0.91.

**Q.** And the “Odds ratio pravastatin vs placebo” value (Total Coronary Heart Disease Events, 1 rare allele)?
**A.** The value was 0.58.

**Q.** What about the “Odds ratio pravastatin vs placebo” value (Total Coronary Heart Disease Events, 2 rare alleles) of the same molecule?
**A.** The value was 1.00.

**Q.** And the “Odds ratio pravastatin vs placebo” value (Total Mortality, 0 rare alleles)?
**A.** The value was 1.50.

**Q.** What about the “Odds ratio pravastatin vs placebo” value (Total Mortality, 1 rare allele) of the same molecule?
**A.** Its value is 0.48.

**Q.** What about the “Odds ratio pravastatin vs placebo” value (Total Mortality, 2 rare alleles) of the same molecule?
**A.** Its value is 0.65.

**Q.** What about the “Cardiovascular Mortality, n/total (%)” value [3] of the same molecule?
**A.** Its value is “(5.6%)”.

**Q.** And the “Fatal Atherosclerotic Cardiovascular Disease, n/total (%)” value [3]?
**A.** Its value is “(5.6%)”.

**Q.** And the “Fatal Coronary Heart Disease, n/total (%)” value [3]?
**A.** Its value is “(5.2%)”.

**Q.** And the “Total Coronary Heart Disease Events, n/total (%)” value [3]?
**A.** Its value is “(32.5%)”.

**Q.** And the “Total Mortality, n/total (%)” value [3]?
**A.** The value was “(7.4%)”.

**Q.** What about the “Cardiovascular Mortality, n/total (%)” value [4] of the same molecule?
**A.** The value was “(2.5%)”.

**Q.** And the “Fatal Atherosclerotic Cardiovascular Disease, n/total (%)” value [4]?
**A.** Its value is “(2.4%)”.

**Q.** What about the “Fatal Coronary Heart Disease, n/total (%)” value [4] of the same molecule?
**A.** The value was “(2.0%)”.

**Q.** What about the “Total Coronary Heart Disease Events, n/total (%)” value [4] of the same molecule?
**A.** Its value is “(25.0%)”.

**Q.** What about the “Total Mortality, n/total (%)” value [4] of the same molecule?
**A.** Its value is “(4.6%)”.

**Q.** And the “Cardiovascular Mortality, n/total (%)” value [5]?
**A.** The value was “(2.5%)”.

**Q.** What about the “Fatal Atherosclerotic Cardiovascular Disease, n/total (%)” value [5] of the same molecule?
**A.** Its value is “(2.5%)”.

**Q.** And the “Fatal Coronary Heart Disease, n/total (%)” value [5]?
**A.** Its value is “(2.0%)”.

**Q.** And the “Total Coronary Heart Disease Events, n/total (%)” value [5]?
**A.** The value was “(33.2%)”.

**Q.** What about the “Total Mortality, n/total (%)” value [5] of the same molecule?
**A.** Its value is “(3.7%)”.

**Q.** What about the “Fatal/Non-fatal Atherosclerotic CV Disease, n/total (%)” value [6] of the same molecule?
**A.** The value was “(34.4%)”.

**Q.** What about the “Hosp. for Cardiovascular Disease, n/total (%)” value [6] of the same molecule?
**A.** Its value is “(40.8%)”.

**Q.** What about the “Total Cardiovascular Disease Events, n/total (%)” value [6] of the same molecule?
**A.** Its value is “(42.0%)”.

**Q.** And the “Total Coronary Heart Disease Events, n/total (%)” value [6]?
**A.** The value was “(30.5%)”.

**Q.** What about the “Fatal/Non-fatal Atherosclerotic CV Disease, n/total (%)” value [7] of the same molecule?
**A.** Its value is “(32.1%)”.

**Q.** And the “Hosp. for Cardiovascular Disease, n/total (%)” value [7]?
**A.** Its value is “(40.8%)”.

**Q.** What about the “Total Cardiovascular Disease Events, n/total (%)” value [7] of the same molecule?
**A.** The value was “(41.8%)”.

**Q.** And the “Total Coronary Heart Disease Events, n/total (%)” value [7]?
**A.** Its value is “(27.2%)”.
